Laboratory results reported in patent US5188642A, “Glyphosate-resistant plants” (priority 1990, dated 1993).

Key:
[1] = system: potato stem explant tissue; conditions: tissue transformed with pMON542
Method: Potato--Shoot tips of virus-free Russet Burbank are subcultured on media containing MS major and minor salts, 0.17 g/l sodium dihygrogen phosphate, 0.4 mg/l thiamine hydrochloride, 0.1 g/l inositol, 3% sucrose, 1.5 g/l Gelrite™ (Kelco, Co ) at pH 5.6. Cultures are grown at 24C in a 16 hour photoperiod. Shoots are used approximately 3-4 weeks after subculturing. Stem internodes are cut into approximately 8 mm lengths and split lengthwise, then the cut surface is smeared with Agrobacterium carrying binary vector pMON542 and helper plasmid pTiT37-SE which had been streaked on an LB agar plate and grown for a few days. Stem sections are placed cut side down on the surface of the medium containing MS salts, MS organics, 3% sucrose, 2.25 mg/l BA, […] NAA, 10 mg/l GA, 1.5 g/l Gelrite at pH 5.6. After 4 days, the stem explants are transferred to the same medium but with carbenicillin at 500 mg/l and kanamycin as the selective agent at 0 or 300 mg/l. Two weeks after inoculation, the explants are moved onto medium of the same composition but without NAA.

transgenic canola lines = test: Glyphosate spray test, reproductive scores of transgenic canola (Example 20); type: in vivo, Brassica napus; conditions: 0.28 Kg/ha, 28 days after spraying; lines with A. thaliana meristematic promoter (pMON992) versus enhanced CaMV35S promoter only (pMON987); FIG. 11
Method: The transgenic, differentiated plants obtained containing the variant EPSP synthase gene as described above were analyzed for resistance to glyphosate. The transgenic plants containing the Arabidopsis EPSP synthase gene (as described) directed by the Arabidopsis thaliana promoter as also described above contained pMON992 while those plants containing the Arabidopsis EPSP synthase gene driven only by the enhanced CaMV35S promoter contained pMON987. These transgenic plants were planted and the seed from the R° plants harvested, threshed and dried before planting for a glyphosate spray test. The progeny were planted in 4-inch square pots of Metro 350 and three types of slow release fertilizers. A goal of twenty seedlings from each R° plant is desirable for testing. Germination frequency is usually high but overplanting ensures that twenty seedlings are present. The plants were thinned down by selecting the twenty most vigorous and erect seedlings seven to ten days after planting. A negative control (non-transformed, "Westar" variety) was planted at the same time to maintain quality and display the results. The plants were maintained and grown in a greenhouse environment. A sixteen-hour photoperiod and a temperature of 21° C. (day) and 15° C. (night) was maintained. Water soluble Peters Pete Lite fertilizer with an analysis of 20-19-18 was applied once per week or as needed. […]

tobacco leaf disks = test: Callus growth from tobacco leaf disks on glyphosate; type: cell-based, N. tabacum; conditions: for callus tissue formation: 0.5 mM glyphosate
Excerpt: Leaf disks were excised from tobacco plants (N. tabacum) and treated as described above with A. tumefaciens cells containing pMON546 (or pMON505, for control cells) and helper plasmid pGV3111-SE.

petunia leaf disks = test: Callus growth from petunia leaf disks on MS media with glyphosate; type: cell-based
Method: Leaf disks with diameters of 6 mm (1/4 inch) were taken from surface-sterilized petunia leaves. They were cultivated on MS104 agar medium for 2 days to promote partial cell wall formation at the wound surfaces. They were then submerged in a culture of A. tumefaciens cells containing both pMON546 and GV3111-SE which had been grown overnight in Luria broth at 28° C., and shaken gently. The cells were removed from the bacterial suspension, blotted dry, and incubated upside down on filter paper placed over "nurse" cultures of tobacco cells, as described in Horsch 1981. Afer 2 or 3 days, the disks were transferred to petri dishes containing MS media with 500 μg/ml carbenicillin and 0, 0.1, 0.25, or 0.5 mM glyphosate (sodium salt), with no nurse cultures.
Control tissue was created using A. tumefaciens cells containing the helper plasmid pGV3111-SE and a different plant transformation vector, pMON505, which contained a T-DNA region with a NOS/NPTII/NOS kanamycin resistance gene and a NOS selectable marker gene identical to pMON546, but without the CaMV/EPSPS gene.
Within 10 days after transfer to the media containing glyphosate, actively growing callus tissue appeared on the periphery of all disks on the control plate containing no glyphosate. […] This confirms that the CaMV/EPSPS gene conferred glyphosate resistance upon the transformed cells.

cotton tumor tissue = test: Cotton tumor tissue growth on medium containing glyphosate; type: cell-based; conditions: 0.5 mM glyphosate
Method: A plant transformation vector similar to pMON546 is prepared following the general procedure outlined in Example 1 except that the CTP/EPSPS coding sequence is obtained from cotton. Seeds of cotton (cultivator Delta Pine 50) are surface sterilized using sodium hypochlorite and germinated in vitro on a basal medium in the dark. After 2 weeks hypocotyls and cotyledons are cut into pieces and innoculated with a tumorous strain of A. tumefaciens containing the above described transformation vector and helper plasmid pGV3111. After 3 days coculture on MS basal medium, the explants are transferred to the same medium with 500 mg/l carbenicillin to kill the bacteria. After 2 to 4 weeks, tumor tissue is transferred to the same medium containing 0.5 mM glyphosate.
Control tissue was produced using tumorous A. tumefaciens cells containing the helper plasmid pGV3111 and pMON200.

O=C(O)CNCP(=O)(O)O [glyphosate, N-phosphonomethylglycine]
resistance of tissue [1]: exhibits substantial resistance to glyphosate
reproductive scores (scale 0-10) (transgenic canola lines): higher reproductive scores
callus tissue formation (tobacco leaf disks; cells transformed with CaMV/EPSPS gene (pMON546)): created substantial amounts of callus tissue
callus tissue formation (tobacco leaf disks; control cells without the gene (pMON505)): did not create any detectable callus tissue
glyphosate resistance of transformed tobacco cells (tobacco leaf disks; pMON542, E. coli mutant EPSPS construct with CTP): resulted in glyphosate resistance
glyphosate resistance of transformed tobacco cells (tobacco leaf disks; pMON8078, E. coli mutant EPSPS construct without CTP): failed to confer glyphosate resistance
callus growth, control disks versus transformed tissue (petunia leaf disks; 0.1 mM glyphosate (sodium salt), within 10 days, control pMON505, transformed pMON546): little detectable difference between the control disks and the transformed tissue
callus growth (petunia leaf disks; control disks (pMON505), 0.25 mM glyphosate (sodium salt)): very little growth of callus from control disks
callus growth (petunia leaf disks; control disks (pMON505), 0.5 mM glyphosate (sodium salt)): no callus growth from the control disks
callus growth (petunia leaf disks; transformed disks (pMON546, CaMV/EPSPS), 0.5 mM glyphosate (sodium salt)): a significant number of calli grew from the transformed disks
callus growth (petunia leaf disks; transformed tissue (pMON546, CaMV/EPSPS), 0.25 mM glyphosate (sodium salt)): substantial growth of transformed tissue occurred
tissue growth (cotton tumor tissue; pMON200 transformed tissue (control) and non-transformed tissue): is inhibited
tissue growth (cotton tumor tissue; tissue transformed with cotton CTP/EPSPS vector): demonstrates glyphosate resistance by continuing growth
